One experiment concerns the target CK1δ (Homo sapiens (Human), UniProt P48730). Kind of experiment: CK1δ kinase assay (Caliper LABCHIP electrophoretic separation of fluoresceinated peptide substrate and product). The class given is biochemical. As to conditions: 200 pM enzyme, 50 μM ATP, 22 hours at room temperature. The gist of the method:
(§1)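 IC50 values were obtained by non-linear regression from eleven-concentration titrations. The kinase reactions were incubated for 22 hours at room temperature before termination with 35 mM EDTA.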

Another experiment concerns the target CK1ε (Homo sapiens (Human), UniProt P49674). Kind of experiment: CK1ε kinase assay (Caliper LABCHIP electrophoretic separation of fluoresceinated peptide substrate and product). The format is biochemical. The note with it: 200 pM enzyme, 50 μM ATP, 22 hours at room temperature. The gist of the method:
as §1

Structures are written as SMILES. pIC50: −log10 of the molar value.

Sequence of CK1ε (P49674 whole entry): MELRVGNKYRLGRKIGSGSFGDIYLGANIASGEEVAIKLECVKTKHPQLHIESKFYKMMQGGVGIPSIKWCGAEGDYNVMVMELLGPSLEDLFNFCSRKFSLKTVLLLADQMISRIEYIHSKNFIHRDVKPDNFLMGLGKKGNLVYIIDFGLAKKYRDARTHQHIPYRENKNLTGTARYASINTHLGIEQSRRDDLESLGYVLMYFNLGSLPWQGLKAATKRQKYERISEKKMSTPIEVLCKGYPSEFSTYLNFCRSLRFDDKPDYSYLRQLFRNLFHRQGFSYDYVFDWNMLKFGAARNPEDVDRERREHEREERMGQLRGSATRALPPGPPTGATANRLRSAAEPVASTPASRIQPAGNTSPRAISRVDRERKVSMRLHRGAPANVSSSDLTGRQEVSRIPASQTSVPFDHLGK
Sequence of CK1δ (P48730 whole entry): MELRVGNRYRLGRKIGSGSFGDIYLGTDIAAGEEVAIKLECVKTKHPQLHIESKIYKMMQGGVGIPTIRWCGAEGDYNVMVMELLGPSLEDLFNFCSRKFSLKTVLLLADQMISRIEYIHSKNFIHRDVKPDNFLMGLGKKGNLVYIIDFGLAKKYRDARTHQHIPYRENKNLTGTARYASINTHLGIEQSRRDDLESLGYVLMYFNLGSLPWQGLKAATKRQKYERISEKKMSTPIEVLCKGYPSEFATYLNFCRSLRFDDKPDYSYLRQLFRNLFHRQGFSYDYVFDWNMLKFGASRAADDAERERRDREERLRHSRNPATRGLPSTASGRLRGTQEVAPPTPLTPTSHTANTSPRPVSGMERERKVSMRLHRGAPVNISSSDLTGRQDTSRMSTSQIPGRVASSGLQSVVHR

On to `O=C(Nc1cn2nc(-c3c(-c4ccc(F)cc4)ncn3CCO)ccc2n1)c1ccnc(F)c1` [Compound 230, 2-fluoro-N-(6-(4-(4-fluorophenyl)-1-(2-hydroxyethyl)-1H-imidazol-5-yl)imidazo[1,2-b]pyridazin-2-yl)isonicotinamide], for which the pIC50 was 9.34 against CK1δ and 8.47 on CK1ε.

On to `Cn1cnc(-c2ccc(F)cc2)c1-c1ccc2nc(NC(=O)c3ccnc(F)c3)cn2n1` [Compound 231, 2-fluoro-N-(6-(4-(4-fluorophenyl)-1-methyl-1H-imidazol-5-yl)imidazo[1,2-b]pyridazin-2-yl) isonicotinamide], for which the pIC50 against CK1δ is 9.38; on CK1ε, 8.54.

`CCn1cnc(-c2ccc(F)cc2)c1-c1ccc2nc(NC(=O)c3ccnc(F)c3)cn2n1` [Compound 232, N-(6-(1-ethyl-4-(4-fluorophenyl)-1H-imidazol-5-yl)imidazo[1,2-b]pyridazin-2-yl)-2-fluoroiso-nicotinamide]: the pIC50 against CK1δ was 9.49; at CK1ε, 8.81.

For the compound `COCCn1cnc(-c2ccc(F)cc2)c1-c1ccc2nc(NC(=O)c3ccnc(F)c3)cn2n1` [Compound 233, 2-fluoro-N-(6-(4-(4-fluorophenyl)-1-(2-methoxyethyl)-1H-imidazol-5-yl)imidazo[1,2-b]pyridazin-2-yl)isonicotinamide], the pIC50 was 9.51 against CK1δ and 8.93 against CK1ε.

As for `O=C(Nc1cn2nc(-c3c(-c4ccc(F)cc4)ncn3CCOCCO)ccc2n1)c1ccnc(F)c1` [Compound 234], the pIC50 is 9.34 on CK1δ and 8.64 on CK1ε.

Turning to `O=C(Nc1cn2nc(-c3c(-c4ccc(F)cc4)ncn3CC(F)(F)F)ccc2n1)c1ccnc(F)c1` [Compound 236], the pIC50 at CK1δ was 9.58; on CK1ε, 8.94.

For `O=C(Nc1cn2nc(-c3c(-c4ccc(F)cc4)ncn3CC(F)F)ccc2n1)c1ccnc(F)c1` [Compound 237, N-(6-(1-(2,2-difluoroethyl)-4-(4-fluorophenyl)-1H-imidazol-5-yl)imidazo[1,2-b]pyridazin-2-yl)-2-fluoroisonicotinamide], the results for the pIC50 at CK1δ and on CK1ε were 9.44 and 8.87, respectively.

As to `NS(=O)(=O)CCCn1cnc(-c2ccc(F)cc2)c1-c1ccc2nc(NC(=O)c3ccnc(F)c3)cn2n1` [Compound 241], the pIC50 against CK1δ was 9.44; at CK1ε it was 8.85.

Regarding `O=C(Nc1cn2nc(-c3c(-c4cccc(Cl)c4)ncn3CC(F)F)ccc2n1)c1ccnc(F)c1` [Compound 242, N-(6-(4-(3-chlorophenyl)-1-(2,2-difluoroethyl)-1H-imidazol-5-yl)imidazo[1,2-b]pyridazin-2-yl)-2-fluoroisonicotinamide], the values for the pIC50 at CK1δ and at CK1ε were 8.67 and 7.92, respectively.

Turning to `O=C(Nc1cn2nc(-c3c(-c4ccccc4)ncn3CC(F)F)ccc2n1)c1ccnc(F)c1` [Compound 243, N-(6-(1-(2,2-difluoroethyl)-4-phenyl-1H-imidazol-5-yl)imidazo[1,2-b]pyridazin-2-yl)-2-fluoroisonicotinamide], the pIC50 was 9.19 against CK1δ and 8.22 against CK1ε.

As to `O=C(Nc1cn2nc(-c3c(-c4cccc(F)c4)ncn3CC(F)F)ccc2n1)c1ccnc(F)c1` [Compound 245, N-(6-(1-(2,2-difluoroethyl)-4-(3-fluorophenyl)-1H-imidazol-5-yl)imidazo[1,2-b]pyridazin-2-yl)-2-fluoroisonicotinamide], the values for the pIC50 at CK1δ and against CK1ε were 9.05 and 8.13, respectively.

Take `O=C(Nc1cn2nc(-c3c(-c4ccccc4F)ncn3CC(F)F)ccc2n1)c1ccnc(F)c1` [Compound 246, N-(6-(1,(2,2-difluoroethyl)-4-(2-fluorophenyl)-1H-imidazol-5-yl)imidazo[1,2-b]pyridazin-2-yl)-2-fluoroisonicotinamide]: the pIC50 was 9.11 at CK1δ and 8.22 against CK1ε.

One may read the pIC50 as the negative decadic logarithm of the IC50, by convention in mol/L.

The values above are taken from patent US9556179B2 (BRISTOL-MYERS SQUIBB COMPANY, priority 2012, dated 2017).
